Assays:
CT-26 cells = experiment: Cell viability (CCK-8) of CT-26 cells; type: cell-based, mouse; conditions: 4 h pretreatment with anticancer agent alone
Method: CT-26 and MC-38 cells (10^4 cells per well) were seeded into three wells of a 96-well plate and incubated at 37° C. The next day, the culture medium was replaced with 100 μL of fresh medium containing the above concentrations of anticancer agents. After incubation at 37° C. for 4 h, the culture medium was removed and the cells were washed three times with PBS. […] Finally, CCK-8 reagent (10 μL/well) was added for 3 h at 37° C., and the amount of color in each sample was measured at OD450.

CT-26 tumor = experiment: In vivo anti-cancer efficacy in CT-26 tumor-bearing mice
Method: CT-26 and MC-38 tumor cells (106 in 100 μL PBS) were implanted subcutaneously into the right flanks of 6-week-old BALB/c and C57BL/6 female mice (Orient company, Korea), respectively. When the tumors reached about 100 mm^3, the tumor-bearing mice were injected intraperitoneally with anticancer agents (15 mg/kg GEM, 10 mg/kg DOX or 2 mg/kg MTX) three times every 2 days. Simultaneously, the mice were injected intravenously with the PASylated recombinant proteins of the present invention five times every 2 days. The length (L), width (W), and height (H) of each tumor were recorded every 3 days using a digital caliper, and the tumor volume (mm3) was calculated using the following formula (L×H×W)/2. Mice were euthanized when tumors were ˜1,500 mm^3 and all animal experiments were performed in accordance with the general principles and procedures outlined in the National Institutes of Health Guidelines, and all protocols were approved by the Chonnam National University Animal Care and Use Committee (permit number: HCRL 16-001).

SMILES | decrease in cell viability by pretreatment with anticancer agents (CT-26 cells) | average tumor weight (CT-26 tumor; day 12, combination with DOX, 8 IU/mouse) | tumor growth (CT-26 tumor; dose-finding study, DOX 10 mg/kg i.p. x3, CRT3LP i.v. x5, n=3)
COc1cccc2c1C(=O)c1c(O)c3c(c(O)c1C2=O)C[C@@](O)(C(=O)CO)C[C@@H]3O[C@H]1C[C@H](N)[C@H](O)[C@H](C)O1 [DOX, doxorubicin, reference compound] | 57.9% | 304.8 mg | grew more slowly than untreated tumors
Nc1ccn([C@@H]2O[C@H](CO)[C@@H](O)C2(F)F)c(=O)n1 [GEM, gemcitabine, reference compound] | 45.1% |  | 
O=C1c2c(O)ccc(O)c2C(=O)c2c(NCCNCCO)ccc(NCCNCCO)c21 [MTX, mitozantrone, reference compound] | 62.3% |  | 
